The source of these data is PubChem BioAssay AID256 (DTP/NCI, 2004).

Several values for one entry are separate records, joined by “and”; a condition that tells them apart may be missing. Equal values may be shown once. Toxic doses and inconclusive results are not listed.

The test deals with CD2F1 mice, L1210 leukemia ip, survival T/C. As to the kind of experiment: NCI In Vivo Anticancer Drug Screen. Data for tumor model L1210 Leukemia (intraperitoneal) in CD2F1 (CDF1) mice. Particulars: higher = longer survival. Put shortly:
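Implant tumor; dose compound or vehicle; measure endpoint in both groups; report treated divided by control.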

The mark [1] stands for this setting: endpoint: mean survival time, dose: 100.0 mg/kg/injection, schedule: Q04DX003 (ip), vehicle: saline with Tween-80.
[2] abbreviates: endpoint: mean survival time, dose: 200.0 mg/kg/injection, schedule: Q04DX003 (ip), vehicle: saline with Tween-80.
Where [3] appears, read: endpoint: mean survival time, dose: 400.0 mg/kg/injection, schedule: Q04DX003 (ip), vehicle: saline with Tween-80.
[4] abbreviates: endpoint: mean survival time, dose: 6.25 mg/kg/injection, schedule: Q04DX003 (ip), vehicle: saline with Tween-80.
The mark [5] stands for this setting: endpoint: mean survival time, dose: 12.5 mg/kg/injection, schedule: Q04DX003 (ip), vehicle: saline with Tween-80.
Where [6] appears, read: endpoint: mean survival time, dose: 12.5 mg/kg/injection, schedule: Q01DX005 (ip), vehicle: distilled water + Tween-80.
[7] abbreviates: endpoint: mean survival time, dose: 25.0 mg/kg/injection, schedule: Q01DX005 (ip), vehicle: distilled water + Tween-80.
Where [8] appears, read: endpoint: mean survival time, dose: 50.0 mg/kg/injection, schedule: Q01DX005 (ip), vehicle: distilled water + Tween-80.
[9] abbreviates: endpoint: mean survival time, dose: 100.0 mg/kg/injection, schedule: Q01DX005 (ip), vehicle: distilled water + Tween-80.
Where [10] appears, read: endpoint: mean survival time, dose: 200.0 mg/kg/injection, schedule: Q01DX005 (ip), vehicle: distilled water + Tween-80.
The mark [11] stands for this setting: endpoint: mean survival time, dose: 100.0 mg/kg/injection, schedule: Q04DX002 (ip), vehicle: saline with Tween-80.
Where [12] appears, read: endpoint: mean survival time, dose: 200.0 mg/kg/injection, schedule: Q04DX002 (ip), vehicle: saline with Tween-80.
Where [13] appears, read: endpoint: mean survival time, dose: 400.0 mg/kg/injection, schedule: Q04DX002 (ip), vehicle: saline with Tween-80.
The mark [14] stands for this setting: endpoint: mean survival time, dose: 100.0 mg/kg/injection, schedule: Q01DX009 (ip), vehicle: saline with Tween-80.
[15] abbreviates: endpoint: mean survival time, dose: 200.0 mg/kg/injection, schedule: Q01DX009 (ip), vehicle: saline with Tween-80.
[16] abbreviates: endpoint: mean survival time, dose: 400.0 mg/kg/injection, schedule: Q01DX009 (ip), vehicle: saline with Tween-80.

For `OC(c1ccccc1)(c1ccccc1)c1ccccc1`, the T/C reads like this: under setting [1], 101 % of control; under setting [2], 98 % of control; under setting [3], 98 % of control.
Turning to `CC([NH-])CC[NH-].O=C(O)C(=O)O.[Pt+2]` (stereo not drawn), the T/C (endpoint: mean survival time, dose: 3.12 mg/kg/injection, schedule: Q04DX003 (ip), vehicle: saline with Tween-80) was 152 % of control; the T/C under setting [4] was 235 % of control; the T/C under setting [5] was 265 % of control.
For the compound `O=c1n(C2OC(CO)C(O)C2O)ccc2nnnn12` (stereo not drawn), the T/C under setting [6] is 100 % of control; the T/C under setting [7] was 96 % of control; the T/C under setting [8] is 100 % of control; the T/C under setting [9] is 96 % of control; the T/C under setting [10] was 102 % of control.
For `Cc1cc2ccc(Cl)cc2[nH]1`, the T/C runs as follows: (endpoint: mean survival time, dose: 100.0 mg/kg/injection, schedule: Q01DX001 (ip), vehicle: other) 104 % of control; (endpoint: mean survival time, dose: 200.0 mg/kg/injection, schedule: Q01DX001 (ip), vehicle: other) 104 % of control.
For `COc1cc(-c2ccncc2)nc(OC)n1`, the T/C was 96 % of control under setting [11] and 88 % of control under setting [12].
Take `O=C1CCN2CCc3c([nH]c4ccccc34)C2C1` (stereo not drawn): the T/C is 101 % of control under setting [1], 101 % of control under setting [2] and 109 % of control under setting [3].
As for `COc1ccc(COC(=O)Nc2ccccc2[N+](=O)[O-])cc1`, the T/C is, setting by setting: under setting [11], 91 % of control; under setting [12], 87 % of control; under setting [13], 91 % of control.
For the compound `O=C(Nc1ccc(Oc2ccccc2)cc1)c1ccc(C(=O)Nc2ccc(Oc3ccccc3)cc2)cc1`, the T/C was 92 % of control (endpoint: mean survival time, dose: 100.0 mg/kg/injection, schedule: Q01DX001 (ip), vehicle: saline); 92 % of control (endpoint: mean survival time, dose: 200.0 mg/kg/injection, schedule: Q01DX001 (ip), vehicle: saline); 95 % of control (endpoint: mean survival time, dose: 400.0 mg/kg/injection, schedule: Q01DX001 (ip), vehicle: saline).
For `O=c1[nH]c(=O)n(C2OC3COC2C3O)cc1F` (stereo not drawn), the T/C (endpoint: median survival time, dose: 12.5 mg/kg/injection, schedule: Q01DX005 (ip), vehicle: saline with Tween-80) is 101 % of control; the T/C (endpoint: median survival time, dose: 25.0 mg/kg/injection, schedule: Q01DX005 (ip), vehicle: saline with Tween-80) is 106 % of control; the T/C (endpoint: median survival time, dose: 50.0 mg/kg/injection, schedule: Q01DX005 (ip), vehicle: saline with Tween-80) is 102 % of control; the T/C (endpoint: median survival time, dose: 100.0 mg/kg/injection, schedule: Q01DX005 (ip), vehicle: saline with Tween-80) was 97 % of control; the T/C (endpoint: median survival time, dose: 200.0 mg/kg/injection, schedule: Q01DX005 (ip), vehicle: saline with Tween-80) was 96 % of control.
For `CCCCCCCCCCCCCCCCCC(=O)OC1C(CO)OC2C1Oc1nc(=N)ccn12` (stereo not drawn), the T/C (endpoint: mean survival time, dose: 12.5 mg/kg/injection, schedule: Q01DX009 (ip), vehicle: other) is 167 % of control; the T/C (endpoint: mean survival time, dose: 25.0 mg/kg/injection, schedule: Q01DX009 (ip), vehicle: other) is 229 % of control; the T/C (endpoint: mean survival time, dose: 50.0 mg/kg/injection, schedule: Q01DX009 (ip), vehicle: other) was 301 % of control; the T/C (endpoint: mean survival time, dose: 100.0 mg/kg/injection, schedule: Q01DX009 (ip), vehicle: other) is 280 % of control; the T/C (endpoint: mean survival time, dose: 200.0 mg/kg/injection, schedule: Q01DX009 (ip), vehicle: other) is 96 % of control.
In the case of `CC12CCC(/C(=C/NNc3ccc([N+](=O)[O-])cc3[N+](=O)[O-])C1=O)C2(C)C` (stereo not drawn), the T/C runs as follows: under setting [1], 93 % of control; under setting [2], 90 % of control; under setting [3], 96 % of control.
In the case of `CC(=O)Nc1ccc2c(c1)C(N1CC3CCC(CC3)C1)c1ccccc1-2` (stereo not drawn), the T/C (endpoint: mean survival time, dose: 50.0 mg/kg/injection, schedule: Q04DX003 (ip), vehicle: saline) was 105 % of control; the T/C (endpoint: mean survival time, dose: 100.0 mg/kg/injection, schedule: Q04DX003 (ip), vehicle: saline) is 103 % of control; the T/C (endpoint: mean survival time, dose: 200.0 mg/kg/injection, schedule: Q04DX003 (ip), vehicle: saline) is 103 % of control.
Regarding `Cc1ccc(NC(=O)N2CCCCC2C)cc1[N+](=O)[O-]` (stereo not drawn), the T/C was 102 % of control (endpoint: mean survival time, dose: 50.0 mg/kg/injection, schedule: Q01DX009 (ip), vehicle: saline with Tween-80); 94 % of control under setting [14]; 102 % of control under setting [15].
In the case of `O=S(=O)(OCCOC(c1ccccc1)(c1ccccc1)c1ccccc1)c1ccc(Br)cc1`, the T/C reads like this: under setting [1], 94 % of control; under setting [2], 90 % of control; under setting [3], 98 % of control.
In the case of `OC1(C2(O)CCCC2)CCCC1`, the T/C was 105 % of control under setting [14], 111 % of control under setting [15] and 103 % of control under setting [16].
For `O=C(Nc1ccc(F)cc1)c1cccc(Cl)c1`, the T/C runs as follows: under setting [14], 98 % of control; under setting [1], 94 % of control; under setting [15], 90 % of control; under setting [2], 94 % of control; under setting [16], 96 % of control; under setting [3], 95 % of control.
Consider `CCCCCCCCCCCCCCCCCCNC(=O)C[N+](C)(C)Cc1ccccc1`, for which the T/C reads like this: under setting [4], 103 % of control; under setting [5], 97 % of control.
Regarding `CCOC(=O)CCCCCSc1nn(C2OC(COC(=O)c3ccccc3)C(OC(=O)c3ccccc3)C2OC(=O)c2ccccc2)c(=O)[nH]c1=O` (stereo not drawn), the T/C by setting is: under setting [6], 101 % of control; under setting [7], 107 % of control; under setting [8], 95 % of control; under setting [9], 106 % of control; under setting [10], 107 % of control.
For `[C-]#[O+].[Cl][Sn]([Cl])[Cl].[Cl][Sn]([Cl])[Cl].[Pt].c1cnc2c(c1)ccc1cccnc12`, the T/C reads like this: (endpoint: median survival time, dose: 3.12 mg/kg/injection, schedule: Q04DX003 (ip), vehicle: saline with Tween-80) 113 % of control; (endpoint: median survival time, dose: 6.25 mg/kg/injection, schedule: Q04DX003 (ip), vehicle: saline with Tween-80) 109 % of control; (endpoint: median survival time, dose: 12.5 mg/kg/injection, schedule: Q04DX003 (ip), vehicle: saline with Tween-80) 109 % of control; (endpoint: median survival time, dose: 100.0 mg/kg/injection, schedule: Q04DX003 (ip), vehicle: saline with Tween-80) 106 % of control.
Regarding `CCCCCn1c(CN2CCCCC2)nc2c1-c1ccccc1C(=O)C2=O`, the T/C is 96 % of control under setting [1], 103 % of control under setting [2] and 103 % of control under setting [3].
Consider `Cc1cc(C)c(NC(=O)CC#N)cc1C`, for which the T/C reads like this: (endpoint: mean survival time, dose: 25.0 mg/kg/injection, schedule: Q04DX003 (ip), vehicle: saline with Tween-80) 113 % of control and 93 % of control; (endpoint: mean survival time, dose: 50.0 mg/kg/injection, schedule: Q04DX003 (ip), vehicle: saline with Tween-80) 89 % of control and 103 % of control; (endpoint: mean survival time, dose: 100.0 mg/kg/injection, schedule: Q01DX001 (ip), vehicle: saline with Tween-80) 100 % of control; under setting [11], 90 % of control; (endpoint: mean survival time, dose: 200.0 mg/kg/injection, schedule: Q01DX001 (ip), vehicle: saline with Tween-80) 102 % of control; under setting [12], 102 % of control. Moreover, the T/C is 102 % of control (endpoint: mean survival time, dose: 400.0 mg/kg/injection, schedule: Q01DX001 (ip), vehicle: saline with Tween-80); 105 % of control under setting [13]; 93 % of control under setting [3].
Consider `O=C1C=C(O)C2C(=O)C1C1/C(=[N+](/[O-])O)C=C([N+](=O)[O-])C2C1[N+](=O)[O-]` (stereo not drawn), for which the T/C under setting [11] is 98 % of control, the T/C under setting [12] is 110 % of control and the T/C under setting [13] was 98 % of control.
For `CNC(=O)c1ccccc1C(c1ccccc1)C1(O)CCCCC1` (stereo not drawn), the T/C runs as follows: under setting [1], 101 % of control; under setting [2], 88 % of control; under setting [3], 93 % of control.
On to `COC1=CCC23C(=O)C=CC(=O)C2(C1)C(=O)c1ccccc1C3=O` (stereo not drawn), for which the T/C (endpoint: median survival time, dose: 3.12 mg/kg/injection, schedule: Q01DX009 (ip), vehicle: saline with Tween-80) is 102 % of control; the T/C (endpoint: median survival time, dose: 6.25 mg/kg/injection, schedule: Q01DX009 (ip), vehicle: saline with Tween-80) is 105 % of control; the T/C (endpoint: median survival time, dose: 12.5 mg/kg/injection, schedule: Q01DX009 (ip), vehicle: saline with Tween-80) is 112 % of control; the T/C (endpoint: median survival time, dose: 25.0 mg/kg/injection, schedule: Q01DX009 (ip), vehicle: saline with Tween-80) is 104 % of control.
